Results taken from paper PMC6801739, “Antitumor Activity of a Novel Tyrosine Kinase Inhibitor AIU2001 Due to Abrogation of the DNA Damage Repair in Non-Small Cell Lung Cancer Cells” (International Journal of Molecular Sciences, 2019).

What was measured:
FLT3(D835Y) = FLT3(D835Y) (Homo sapiens, UniProt P36888, D835Y); experiment: Kinase profiling at 10 μM (Eurofins); format: biochemical; set-up: purchased Eurofins Pharma Discovery (KinaseProfiler); IC50 values by Reaction Biology Corp; conditions: read-out: Inhibitory activity
CDK1/cyclinB = biological target: T1, CDK1/cyclinB (Homo sapiens, UniProt P06493); experiment: Kinase profiling at 10 μM (Eurofins); format: biochemical; conditions: read-out: Inhibitory activity
T1 construct: purchased Eurofins Pharma Discovery (KinaseProfiler); IC50 values by Reaction Biology Corp
T1 sequence (P06493 whole entry): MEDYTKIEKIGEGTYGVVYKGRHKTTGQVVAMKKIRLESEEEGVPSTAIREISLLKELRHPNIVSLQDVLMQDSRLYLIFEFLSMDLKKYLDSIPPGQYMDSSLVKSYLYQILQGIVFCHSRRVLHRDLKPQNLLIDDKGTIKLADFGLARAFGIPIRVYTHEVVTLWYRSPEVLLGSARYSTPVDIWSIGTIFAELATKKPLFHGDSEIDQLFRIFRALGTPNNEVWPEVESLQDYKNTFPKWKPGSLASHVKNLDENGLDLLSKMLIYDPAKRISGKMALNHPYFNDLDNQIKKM
T1 sequence (P14635 whole entry partner): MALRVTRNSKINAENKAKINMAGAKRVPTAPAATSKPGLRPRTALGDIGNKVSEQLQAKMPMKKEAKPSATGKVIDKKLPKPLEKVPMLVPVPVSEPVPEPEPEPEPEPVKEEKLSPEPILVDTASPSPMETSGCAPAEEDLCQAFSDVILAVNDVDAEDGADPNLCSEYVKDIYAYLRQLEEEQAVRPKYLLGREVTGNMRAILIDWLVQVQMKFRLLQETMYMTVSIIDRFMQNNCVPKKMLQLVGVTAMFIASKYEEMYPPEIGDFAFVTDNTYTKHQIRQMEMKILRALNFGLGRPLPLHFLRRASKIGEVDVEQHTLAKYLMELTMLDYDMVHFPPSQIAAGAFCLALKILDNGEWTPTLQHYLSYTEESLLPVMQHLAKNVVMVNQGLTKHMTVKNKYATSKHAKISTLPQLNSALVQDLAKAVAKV

AMPKα1 = biological target: T2, AMPKα1 (Homo sapiens, UniProt Q13131); experiment: Kinase profiling at 10 μM (Eurofins); format: biochemical; conditions: read-out: Inhibitory activity
T2 construct: purchased Eurofins Pharma Discovery (KinaseProfiler); IC50 values by Reaction Biology Corp

CHK2 = biological target: T3, CHK2 (Homo sapiens, UniProt O96017); experiment: Kinase profiling at 10 μM (Eurofins); format: biochemical; conditions: read-out: Inhibitory activity
T3 construct: purchased Eurofins Pharma Discovery (KinaseProfiler); IC50 values by Reaction Biology Corp
T3 sequence (O96017 whole entry): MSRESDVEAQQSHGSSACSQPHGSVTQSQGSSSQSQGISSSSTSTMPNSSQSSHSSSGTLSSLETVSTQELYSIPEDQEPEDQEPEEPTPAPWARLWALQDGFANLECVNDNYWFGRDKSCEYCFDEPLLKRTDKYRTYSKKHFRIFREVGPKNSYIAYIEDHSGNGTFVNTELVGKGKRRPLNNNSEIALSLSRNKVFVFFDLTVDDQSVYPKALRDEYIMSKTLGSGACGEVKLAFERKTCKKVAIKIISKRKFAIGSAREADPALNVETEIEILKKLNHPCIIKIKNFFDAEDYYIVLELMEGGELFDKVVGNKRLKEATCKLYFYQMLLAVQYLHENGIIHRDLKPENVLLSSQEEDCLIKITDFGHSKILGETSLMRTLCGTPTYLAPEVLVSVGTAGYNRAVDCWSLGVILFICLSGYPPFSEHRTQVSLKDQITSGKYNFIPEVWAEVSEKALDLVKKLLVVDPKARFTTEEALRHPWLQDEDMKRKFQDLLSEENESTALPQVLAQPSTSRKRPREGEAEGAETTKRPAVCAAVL

Aurora-A = biological target: T4, Aurora-A (Homo sapiens, UniProt O14965); experiment: Kinase profiling at 10 μM (Eurofins); format: biochemical; conditions: read-out: Inhibitory activity
T4 construct: purchased Eurofins Pharma Discovery (KinaseProfiler); IC50 values by Reaction Biology Corp
T4 sequence (O14965 whole entry): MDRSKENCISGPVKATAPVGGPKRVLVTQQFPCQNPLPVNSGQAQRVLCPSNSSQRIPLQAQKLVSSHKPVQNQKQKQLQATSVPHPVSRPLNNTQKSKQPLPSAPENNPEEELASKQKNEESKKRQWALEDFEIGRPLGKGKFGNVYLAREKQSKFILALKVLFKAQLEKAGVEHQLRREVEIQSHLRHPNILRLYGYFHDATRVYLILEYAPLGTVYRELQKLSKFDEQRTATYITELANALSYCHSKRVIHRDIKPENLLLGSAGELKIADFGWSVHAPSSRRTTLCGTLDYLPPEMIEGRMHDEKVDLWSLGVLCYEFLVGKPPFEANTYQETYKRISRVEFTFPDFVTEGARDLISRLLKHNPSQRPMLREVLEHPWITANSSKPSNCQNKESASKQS

ALK = biological target: T5, ALK (Homo sapiens, UniProt Q9UM73); experiment: Kinase profiling at 10 μM (Eurofins); format: biochemical; conditions: read-out: Inhibitory activity
T5 construct: purchased Eurofins Pharma Discovery (KinaseProfiler); IC50 values by Reaction Biology Corp
T5 sequence (Q9UM73 19-1620): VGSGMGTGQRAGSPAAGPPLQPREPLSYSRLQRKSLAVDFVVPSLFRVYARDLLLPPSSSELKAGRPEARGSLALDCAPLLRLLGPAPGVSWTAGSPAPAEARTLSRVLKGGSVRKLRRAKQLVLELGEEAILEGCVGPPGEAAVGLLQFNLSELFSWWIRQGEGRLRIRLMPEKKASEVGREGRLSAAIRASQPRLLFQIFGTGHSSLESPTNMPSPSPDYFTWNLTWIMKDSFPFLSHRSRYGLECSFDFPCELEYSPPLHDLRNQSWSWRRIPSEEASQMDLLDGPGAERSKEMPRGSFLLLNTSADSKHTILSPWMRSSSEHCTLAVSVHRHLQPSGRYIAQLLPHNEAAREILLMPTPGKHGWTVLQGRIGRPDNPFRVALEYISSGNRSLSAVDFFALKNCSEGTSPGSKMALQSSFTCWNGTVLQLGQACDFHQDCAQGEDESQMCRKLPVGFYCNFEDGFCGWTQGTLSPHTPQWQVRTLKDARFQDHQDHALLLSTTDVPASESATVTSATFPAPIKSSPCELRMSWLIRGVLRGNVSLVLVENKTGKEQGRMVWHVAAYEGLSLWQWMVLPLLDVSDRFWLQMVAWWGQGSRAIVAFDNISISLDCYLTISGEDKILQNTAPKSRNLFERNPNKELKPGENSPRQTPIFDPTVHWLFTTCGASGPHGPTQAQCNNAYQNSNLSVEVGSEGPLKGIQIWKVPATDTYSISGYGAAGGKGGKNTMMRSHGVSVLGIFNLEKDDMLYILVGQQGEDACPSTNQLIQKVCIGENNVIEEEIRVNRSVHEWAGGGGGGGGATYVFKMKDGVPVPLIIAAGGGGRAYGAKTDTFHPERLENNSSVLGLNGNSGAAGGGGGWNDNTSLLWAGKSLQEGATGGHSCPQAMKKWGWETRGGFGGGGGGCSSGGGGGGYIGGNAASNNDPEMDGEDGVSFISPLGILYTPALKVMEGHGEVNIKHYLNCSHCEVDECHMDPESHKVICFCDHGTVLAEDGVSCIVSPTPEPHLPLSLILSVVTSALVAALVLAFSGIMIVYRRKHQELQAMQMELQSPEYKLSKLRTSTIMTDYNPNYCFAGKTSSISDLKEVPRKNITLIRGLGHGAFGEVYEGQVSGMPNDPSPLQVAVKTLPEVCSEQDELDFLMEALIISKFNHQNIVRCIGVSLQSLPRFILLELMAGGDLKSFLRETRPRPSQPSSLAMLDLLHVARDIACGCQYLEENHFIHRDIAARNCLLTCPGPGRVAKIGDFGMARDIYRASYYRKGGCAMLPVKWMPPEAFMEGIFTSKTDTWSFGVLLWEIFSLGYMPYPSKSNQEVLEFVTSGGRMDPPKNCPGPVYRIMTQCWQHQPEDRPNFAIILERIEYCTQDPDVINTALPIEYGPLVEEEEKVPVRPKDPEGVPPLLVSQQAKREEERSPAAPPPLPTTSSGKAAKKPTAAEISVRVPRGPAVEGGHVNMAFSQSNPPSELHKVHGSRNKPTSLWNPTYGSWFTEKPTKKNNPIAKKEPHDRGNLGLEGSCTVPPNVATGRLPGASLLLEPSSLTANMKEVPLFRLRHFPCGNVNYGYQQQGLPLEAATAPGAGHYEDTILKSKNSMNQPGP

A549 xenografts = experiment: A549 tumor xenograft mouse model; format: in vivo, BALB/c nu/nu mice; conditions: 20 mg/kg i.p. once per two or three days, five times
Description: We next determined whether the antitumor effect associated with in vitro AIU2001 treatment could be translated into an in vivo xenograft mouse model. Mice were subcutaneously (s.c.) implanted with A549 cells in the right hind leg. When the tumors were palpable (average […]: 150 mm^3; 14days post-implantation), mice were intraperitoneally (i.p.) administered 20 mg/kg AIU2001 or DMSO once per two or three days for five times in total. […] At necropsy, the average tumor weight of mice treated with AIU2001 or DMSO was 1.2 g or 2.8 g, respectively (Figure 2B,C).
Figure 2 AIU2001 inhibited tumor growth of A549 xenografts in nude mice. (A) A549 cells were s.c. injected into the thigh of the right hind leg of BALB/c nu/nu mice (n = 4/group). Two weeks after tumor cell injection, AIU2001 (20 mg/kg) or DMSO was administered (i.p.) once per two or three days for five times in total. The longest (L) and shortest (W) tumor axes were measured, and tumor volume (mm^3) was calculated as L × W^2/2. The data shown represent the average tumor volume (* p < 0.05). (B) The weight of the resected tumors was measured at the end of the experiment (*** p < 0.001). (C) Image of resected tumors from mice. (D) The body weights of A549 tumor xenograft mice were determined twice weekly during the experiments.
A549 human lung cancer cell xenografts were initially established by s.c. implanting 1 × 10^6 cultured cells into the thigh of the right hind leg of six week old mice. When tumor volumes had reached approximately 150 mm^3, AIU2001 ([…]) was administered i.p. once per two or three days for five times in total. All animal experiments were reviewed and approved by the Institutional Animal Care & Use Committee of Korea Institute of Radiological and Medical Sciences (kirams2018-0063, 6 December 2018).
Two axes of the tumor (L, longest axis; W, shortest axis) were measured twice per week after irradiation using Vernier calipers. Tumor volume was calculated as (L × W^2)/2 (mm^3).

A549 cells [1] = experiment: qPCR of DNA damage repair genes and STAT5 mRNA; format: cell-based, human; conditions: 24 h
Text: (§1) RNA was extracted using TRIzol® RNA isolation reagent (ThermoFisher Scientific). RNA was reverse-transcribed into cDNA using the M-MLV reverse transcriptase (Enzynomics, Daejeon, Korea) and RNase inhibitor (Promega, Madison, WI, USA). The sequence of the primers targeting human BRCA1, BRCA2, RAD51, BARD1, XRCC6, and XRCC5 are as follows: BRCA1 sense 5′-[…]-3′, BRCA1 antisense 5′-[…]-3′, BRCA2 sense 5′-[…]-3′, BRCA2 antisense 5′-[…]-3′, RAD51 sense 5′-[…]-3′, RAD51 antisense 5′-[…]-3′, BARD1 sense 5′-[…]-3′, BARD1 antisense 5′-[…]-3′, XRCC6 sense 5′-[…]-3′, XRCC6 antisense 5′-[…]-3′, XRCC5 sense 5′-[…]-3′,and XRCC5 antisense 5′-[…]-3′. β-actin was used as a housekeeping gene for normalization. The cDNA was quantified using real-time PCR with SYBR Green/fluorescein qPCR master mix (ThermoScientific, Carlsbad, CA, USA) on a Lightcycler 96 system (Roche Diagnostics, Mannheim, Germany) according to the manufacturer’s protocol.

H1299 cells [2] = experiment: qPCR of DNA damage repair genes and STAT5 mRNA; format: cell-based, human; conditions: 24 h
Text: as §1

A549 cells [3] = experiment: Clonogenic survival assay with γ-radiation; format: cell-based, human
Description: (§2) Cells were seeded on 60-mm culture dishes at various densities and then treated with DMSO or 2 μM AIU2001. After 2 h, the cells were treated with the indicated doses of ^137Cs γ-radiation. After 10 days, the colonies were fixed and stained with 1.5% methylene blue (Sigma Aldrich) in methanol solution. Colonies containing > 50 cells were counted. The dose enhancement ratio (DER) was calculated as the dose (Gy) of radiation that yielded a surviving fraction of 0.1 for DMSO-treated cells divided by that dose for AIU2001-treated cells. The experiment was performed in triplicate.

H1299 cells [4] = experiment: Clonogenic survival assay with γ-radiation; format: cell-based, human
Description: as §2

PKCα = biological target: T6, PKCα (Homo sapiens, UniProt P17252); experiment: Kinase profiling at 10 μM (Eurofins); format: biochemical; conditions: read-out: Inhibitory activity
T6 construct: purchased Eurofins Pharma Discovery (KinaseProfiler); IC50 values by Reaction Biology Corp

PDGFRα = biological target: T7, PDGFRα (Homo sapiens, UniProt P16234); experiment: Kinase profiling at 10 μM (Eurofins); format: biochemical; conditions: read-out: Inhibitory activity
T7 construct: purchased Eurofins Pharma Discovery (KinaseProfiler); IC50 values by Reaction Biology Corp

FLT4 = biological target: T8, FLT4 (Homo sapiens, UniProt P35916); experiment: Kinase profiling at 10 μM (Eurofins); format: biochemical; conditions: read-out: Inhibitory activity
T8 construct: purchased Eurofins Pharma Discovery (KinaseProfiler); IC50 values by Reaction Biology Corp
T8 sequence (P35916 25-1363): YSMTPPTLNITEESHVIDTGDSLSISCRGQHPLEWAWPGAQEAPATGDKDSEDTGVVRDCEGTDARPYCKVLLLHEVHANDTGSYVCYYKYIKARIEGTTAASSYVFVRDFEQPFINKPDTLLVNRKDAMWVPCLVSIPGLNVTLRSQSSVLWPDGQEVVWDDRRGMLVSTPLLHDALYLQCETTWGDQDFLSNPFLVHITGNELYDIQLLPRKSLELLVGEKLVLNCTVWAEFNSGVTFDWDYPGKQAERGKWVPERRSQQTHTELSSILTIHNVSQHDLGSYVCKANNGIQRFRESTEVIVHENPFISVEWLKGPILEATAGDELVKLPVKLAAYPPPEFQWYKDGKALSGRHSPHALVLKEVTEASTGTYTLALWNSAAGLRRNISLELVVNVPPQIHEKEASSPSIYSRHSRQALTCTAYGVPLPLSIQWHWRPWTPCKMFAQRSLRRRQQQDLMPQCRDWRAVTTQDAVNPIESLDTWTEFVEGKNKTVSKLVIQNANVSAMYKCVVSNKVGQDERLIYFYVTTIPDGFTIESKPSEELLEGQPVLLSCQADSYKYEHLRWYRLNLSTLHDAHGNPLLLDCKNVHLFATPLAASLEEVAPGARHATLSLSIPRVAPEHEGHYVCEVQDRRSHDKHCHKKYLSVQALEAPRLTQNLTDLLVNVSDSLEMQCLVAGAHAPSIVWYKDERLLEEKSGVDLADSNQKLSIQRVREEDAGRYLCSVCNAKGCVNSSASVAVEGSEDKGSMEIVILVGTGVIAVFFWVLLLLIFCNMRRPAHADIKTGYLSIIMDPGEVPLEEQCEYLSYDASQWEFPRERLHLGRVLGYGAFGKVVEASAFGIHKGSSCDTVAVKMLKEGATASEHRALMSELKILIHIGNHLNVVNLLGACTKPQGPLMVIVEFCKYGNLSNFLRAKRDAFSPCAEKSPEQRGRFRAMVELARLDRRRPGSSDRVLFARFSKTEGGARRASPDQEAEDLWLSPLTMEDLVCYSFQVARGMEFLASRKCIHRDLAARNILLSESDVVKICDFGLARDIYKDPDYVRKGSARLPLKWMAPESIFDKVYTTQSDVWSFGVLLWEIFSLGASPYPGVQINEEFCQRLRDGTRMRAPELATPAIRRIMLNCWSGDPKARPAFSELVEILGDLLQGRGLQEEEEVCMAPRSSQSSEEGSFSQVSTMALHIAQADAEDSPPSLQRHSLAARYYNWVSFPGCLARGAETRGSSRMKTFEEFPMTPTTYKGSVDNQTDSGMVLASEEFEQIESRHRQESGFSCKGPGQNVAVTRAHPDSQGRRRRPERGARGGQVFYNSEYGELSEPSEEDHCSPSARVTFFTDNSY

MEK1 = biological target: T9, MEK1 (Homo sapiens, UniProt Q02750); experiment: Kinase profiling at 10 μM (Eurofins); format: biochemical; conditions: read-out: Inhibitory activity
T9 construct: purchased Eurofins Pharma Discovery (KinaseProfiler); IC50 values by Reaction Biology Corp
T9 sequence (Q02750 whole entry): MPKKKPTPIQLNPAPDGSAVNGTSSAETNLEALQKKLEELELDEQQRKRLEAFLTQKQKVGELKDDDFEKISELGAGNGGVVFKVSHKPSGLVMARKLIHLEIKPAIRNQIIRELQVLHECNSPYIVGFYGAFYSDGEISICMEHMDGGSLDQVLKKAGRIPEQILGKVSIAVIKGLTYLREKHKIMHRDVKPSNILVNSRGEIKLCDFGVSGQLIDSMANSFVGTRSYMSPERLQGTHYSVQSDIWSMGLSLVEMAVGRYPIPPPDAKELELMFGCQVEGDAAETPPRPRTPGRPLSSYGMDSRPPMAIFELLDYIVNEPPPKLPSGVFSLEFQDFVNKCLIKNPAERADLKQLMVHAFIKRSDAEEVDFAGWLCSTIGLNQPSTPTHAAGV

A549 cells [5] = experiment: Cell cycle analysis (PI, flow cytometry); format: cell-based, human; conditions: 5 μM
Description: (§3) Samples were collected at the indicated time points and fixed in 70% cold ethanol overnight. For cell cycle analysis, the fixed cells were treated with RNase for 20 min before addition of 50 μg/mL PI and analyzed using FACS Calibur™ (BD Biosciences, San Jose, CA, USA).

H1299 cells [6] = experiment: Cell cycle analysis (PI, flow cytometry); format: cell-based, human; conditions: 5 μM
Description: as §3

Brc1ccc(-c2cnc(Nc3cccc4ccccc34)o2)cc1 [AIU2001, 5-(4-bromophenyl)-N-(naphthalen-1-yl) oxazol-2-amine]
inhibition at 10 µM (FLT3(D835Y)): ≥ 75%
inhibition at 10 µM (CDK1/cyclinB): 38%
inhibition at 10 µM (AMPKα1): 25%
inhibition at 10 µM (CHK2): 14%
inhibition at 10 µM (Aurora-A): 28%
inhibition at 10 µM (ALK): 0%
Average tumor weight at necropsy (A549 xenografts): 1.2 g
Body weight versus control mice (A549 xenografts): did not differ
Inhibition of tumor growth compared to the vehicle (A549 xenografts): 48.3%
Expression level of STAT5 mRNA (A549 cells [1]): downregulated
mRNA levels of HR (BRCA1, BRCA2, BARD1, RAD51) and NHEJ (XRCC5, XRCC6) genes (A549 cells [1]): reduced the mRNA levels
Expression level of STAT5 mRNA (H1299 cells [2]): downregulated
mRNA levels of HR (BRCA1, BRCA2, BARD1, RAD51) and NHEJ (XRCC5, XRCC6) genes (H1299 cells [2]): reduced the mRNA levels
Dose enhancement ratio (DER) at surviving fraction of 0.1 over DMSO-treated cells (A549 cells [3]; 2 μM, 2 h before IR, 10 days): 1.33
Radiosensitivity (A549 cells [3]; clonogenic survival): radiosensitized
Dose enhancement ratio (DER) at surviving fraction of 0.1 over DMSO-treated cells (H1299 cells [4]; 2 μM, 2 h before IR, 10 days): 1.15
Radiosensitivity (H1299 cells [4]; clonogenic survival): radiosensitized
inhibition at 10 µM (PKCα): 9%
inhibition at 10 µM (PDGFRα): 48%
inhibition at 10 µM (FLT4): ≥ 75%
inhibition at 10 µM (MEK1): 0%
Cell cycle effect (A549 cells [5]; 3 h, 6 h or 24 h): G2/M phase arrest
Cells in the sub-G1 phase (A549 cells [5]; 24 h): 3.3%
Cell cycle effect (H1299 cells [6]; 3 h, 6 h or 24 h): G2/M phase arrest
Cells in the sub-G1 phase (H1299 cells [6]; 24 h): 23.1%
